Measured values from patent publication EP4656642A1, “ESTROGEN RECEPTOR PROTEOLYSIS TARGETING CHIMERA COMPOUND AND USE THEREOF” (GAN & LEE PHARM CO., LTD, priority 2023, dated 2024).

Tests used:
Format in all cases: cell-based
MCF-7 cells = assay: Inhibition of cell proliferation of MCF-7 cells (CCK-8, 9 days); conditions: treated for 9 days, CCK-8 kit (Table 6)
How it was run: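 Read-out was CCK-8 viability after 9-day continuous exposure (37°C, 5% CO2) of MCF-7 cells plated at 800/well in 10% FBS DMEM across several compound concentrations. Values are proliferation IC50s.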

ERα [1] = biological target: T1, ERα (Homo sapiens, UniProt P03372); assay: Degradation of ERα in MCF-7 cells (immunoblotting, 4 h)
T1 sequence (P03372 1-595): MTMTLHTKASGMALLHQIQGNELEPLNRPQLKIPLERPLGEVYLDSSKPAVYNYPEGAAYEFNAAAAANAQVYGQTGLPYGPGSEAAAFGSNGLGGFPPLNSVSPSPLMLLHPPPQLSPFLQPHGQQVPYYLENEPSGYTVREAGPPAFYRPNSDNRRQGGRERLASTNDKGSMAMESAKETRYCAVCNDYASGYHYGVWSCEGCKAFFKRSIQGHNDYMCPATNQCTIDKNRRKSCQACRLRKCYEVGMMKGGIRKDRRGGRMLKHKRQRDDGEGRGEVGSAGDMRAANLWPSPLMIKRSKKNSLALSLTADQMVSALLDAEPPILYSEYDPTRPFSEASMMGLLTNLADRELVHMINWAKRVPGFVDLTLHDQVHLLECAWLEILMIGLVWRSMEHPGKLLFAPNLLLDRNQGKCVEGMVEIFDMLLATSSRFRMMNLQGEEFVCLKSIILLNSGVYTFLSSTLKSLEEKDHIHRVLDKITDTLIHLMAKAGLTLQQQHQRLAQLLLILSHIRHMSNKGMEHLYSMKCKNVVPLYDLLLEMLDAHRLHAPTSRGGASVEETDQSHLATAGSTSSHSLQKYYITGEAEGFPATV
How it was run: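 Degradation rate reflects ERα band intensity, corrected to an internal reference protein, relative to control. Values come from Western blotting of lysates from MCF-7 cells exposed 4 h at 37°C to compounds at final concentrations of 0.15-1000nM.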

ERα [2] = biological target: T1, ERα; assay: Degradation of ERα in T-47D cells (immunoblotting, 4 h); set-up: host or cells: T-47D
How it was run: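 ERα protein levels were assessed by immunoblot of RIPA lysates (with protease inhibitor) after 4 h exposure at 37°C. Compound was added in DMSO to T-47D cells at final concentrations of 0.15-1000 nM.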

Structure (SMILES) | IC50 (MCF-7 cells) | Degradation rate (%) of ERα in MCF-7 cells (ERα [1]; 1nM compound) | Degradation rate (%) of ERα in MCF-7 cells (ERα [1]; 10nM compound) | Degradation rate (%) of ERα in T-47D cells (ERα [2]; 1nM compound) | Degradation rate (%) of ERα in T-47D cells (ERα [2]; 10nM compound)
O=C1CCC(N2Cc3c(ccc4c3OCC43CCN(C(=O)C4CCN(CC5CCN(c6ccc([C@@H]7c8ccc(O)cc8CC[C@@H]7c7ccccc7)cc6)CC5)CC4)CC3)C2=O)C(=O)N1 (stereo partly drawn) [K34] | 10.5 nM | 75% | 76% | 76% | 86%
O=C1CCC(N2Cc3c(ccc4c3OCC43CCN(CC(=O)N4CCC(OC5CCN(c6ccc([C@@H]7c8ccc(O)cc8CC[C@@H]7c7ccccc7)cc6)CC5)CC4)CC3)C2=O)C(=O)N1 (stereo partly drawn) [K46] | 85 nM | 54% | 85% | 73% | 90%
O=C1CCC(N2Cc3cc4c(cc3C2=O)CCC2(CN(CC3CCN(c5ccc([C@@H]6c7ccc(O)cc7CC[C@@H]6c6ccccc6)cc5)CC3)C2)O4)C(=O)N1 (stereo partly drawn) [H2] | 5900 nM | -77% | -70% | -11% | -23%
O=C1CCC(N2C(=O)c3cc4c(cc3C2=O)OC2(CCN(C3CCN(C5CN(c6ccc([C@@H]7c8ccc(O)cc8CC[C@@H]7c7ccccc7)cc6)C5)CC3)CC2)C4)C(=O)N1 (stereo partly drawn) [A59] | 905 nM | 11% | 11% | 42% | 50%
C[C@@H]1Cc2cc(O)ccc2C(c2c(F)cc(N3CCC(C(=O)N4CCC(N5CCC6(CC5)COc5c6ccc6c5CN(C5CCC(=O)NC5=O)C6=O)[C@H](F)C4)CC3)cc2F)N1CC(F)F (stereo partly drawn) [F10] | 3.81 nM | 53% | 43% | 59% | 65%
O=C1CCC(N2Cc3c(ccc4c3OC3(CC4)CCN(C4CCN(C(=O)C5CCN(c6ccc([C@@H]7c8ccc(O)cc8CC[C@@H]7c7ccccc7)cc6)CC5)CC4)CC3)C2=O)C(=O)N1 (stereo partly drawn) [G15] | 10.2 nM | -19% | 20% | 39% | 72%
CN(C(=O)CN1CCC2(CC1)COc1cc3c(cc12)CN(C1CCC(=O)NC1=O)C3=O)C1CCC2(CC1)CN(c1ccc([C@@H]3c4ccc(O)cc4CC[C@@H]3c3ccccc3)cc1)C2 (stereo partly drawn) [H56] | 2250 nM | -5% | 21% | 24% | 47%
C[C@@H]1Cc2cc(O)ccc2C(c2c(F)cc(N3CCC(N4CCC(C(=O)N5CCC6(CC5)COc5c6ccc6c5CN(C5CCC(=O)NC5=O)C6=O)CC4)CC3)cc2F)N1CC(F)F (stereo partly drawn) [F9] | 4360 nM | 46% | 45% | 42% | 38%
O=C1CCC(N2Cc3c(ccc4c3OC3(CC4)CCN(C4CC5(CCN(c6ccc([C@@H]7c8ccc(O)cc8CC[C@@H]7c7ccccc7)cc6)CC5)C4)CC3)C2=O)C(=O)N1 (stereo partly drawn) [L21] | 91 nM | -11% | -17% | 26% | 21%
